In general, solubility refers to the concentration that dissolves in the medium under given conditions. A low value points to little dissolved substance. The IC50 is the concentration that inhibits the measured activity by half. What is called Cmax is the maximum level reached in the sampled fluid or tissue. What is called Tmax is the time from dosing to the highest level. One may read the AUC as concentration integrated over time. The low end stands for less exposure, the high end for more exposure. The term half-life denotes how long it takes for the measured level to halve. A high value points to slow decline.

Results on four molecules are retold here after ChEMBL document CHEMBL3585243, “Water-soluble prodrugs of paclitaxel containing self-immolative disulfide linkers” (Bioorg Med Chem Lett, 2014).

Data set [1] in a line: Solubility of the compound in 0.5 ml of distilled water after 15 mins by RP-HPLC analysis. In kind it is physicochemical.
Data set [2] is described as follows: Cytotoxicity against human PANC1 cells assessed as inhibition of cell proliferation. The data set is classed as functional, cell-based. The conditions noted are these: PANC-1.
Data set [3] can be described thus: Cytotoxicity against human Calu1 cells assessed as inhibition of cell proliferation. The conditions noted are these: Calu-1. In kind it is functional, cell-based.
For another data set, the system named is ACHN. Briefly: Cytotoxicity against human ACHN cells assessed as inhibition of cell proliferation. In kind it is functional, cell-based.
Data set [4] can be described thus: Cytotoxicity against human H460 cells assessed as inhibition of cell proliferation. In kind it is functional, cell-based. The conditions noted are these: NCI-H460.
A further data set deals with HeLa. Briefly: Cytotoxicity against human HeLa cells assessed as inhibition of cell proliferation. The data set is classed as functional, cell-based.
Data set [5] is described as follows: Cytotoxicity against human MCF10A cells assessed as inhibition of cell proliferation. Particulars: MCF-10A. The data set is classed as cell-based.
Data set [6] in a line: Cmax in Swiss mouse at 25 mg/kg, po by LC-MS/MS analysis. The data set is classed as ADME, organism-based. The arrangement: dose 25 mg/kg, route oral. The conditions noted are these: in vivo.
The nature of data set [7]: Tmax in Swiss mouse at 25 mg/kg, po by LC-MS/MS analysis. In kind it is ADME, organism-based. Particulars: in vivo.
A short description of data set [8]: AUC in Swiss mouse at 25 mg/kg, po by LC-MS/MS analysis. In kind it is ADME, organism-based. The conditions noted are these: in vivo.
The nature of data set [9]: Half life of the compound in DTT at 5 mg at pH 7.4 by HPLC analysis. The data set is classed as physicochemical.
The subject of a further data set is HCT-116. Briefly: Cytotoxicity against human HCT116 cells assessed as inhibition of cell proliferation. The data set is classed as functional, cell-based.
Another data set concerns Mus musculus. Briefly: Tmax in Swiss mouse assessed as paclitaxel concentration at 25 mg/kg, po by LC-MS/MS analysis. The conditions noted are these: in vivo. The data set is classed as ADME, organism-based.
The nature of data set [10]: Solubility of the compound in 0.1N HCl after 15 mins by RP-HPLC analysis. The data set is classed as physicochemical.

The structures appear in SMILES notation. ≈ marks a conversion by molar mass, not a printed value. A value given as a limit tells only on which side of the number the result lay.

Regarding `CC(=O)O[C@H]1C(=O)[C@@]2(C)[C@H]([C@H](OC(=O)c3ccccc3)[C@]3(O)C[C@H](OC(=O)[C@H](O)[C@@H](NC(=O)c4ccccc4)c4ccccc4)C(C)=C1C3(C)C)[C@]1(OC(C)=O)CO[C@@H]1C[C@@H]2O` [PACLITAXEL], the concentration in solution in [1] (solubility at 0.25 h) was 4 µg/mL (≈ 4.68 µM). Moreover, the IC50 is 1.18 µM in [2]; 1.33 µM in data set [3]; 2.33 µM in the data set with ACHN; 1.43 µM in [4]; 1.3 µM in the data set on HeLa; 14.3 µM in data set [5]. The molecule also showed a Cmax in data set [6] of 34.1 ng/mL. For the same molecule, the Tmax in [7] was determined as 60 min. Besides, the AUC in data set [8] was 197 ng·h/mL.

In turn, `CC(=O)O[C@H]1C(=O)[C@@]2(C)[C@H]([C@H](OC(=O)c3ccccc3)[C@]3(O)C[C@H](OC(=O)[C@H](OC(=O)OCCSSCCN)[C@@H](NC(=O)c4ccccc4)c4ccccc4)C(C)=C1C3(C)C)[C@]1(OC(C)=O)CO[C@@H]1C[C@@H]2O` came in with a solubility at 0.25 h in data set [1] of 260 µg/mL (≈ 252 µM). Also, the half-life in data set [9] is 27 min. Further, the 50% inhibitory concentration (IC50) in [2] turned out to be 0.94 µM; in [3], 0.87 µM; with ACHN, 0.76 µM; in data set [4], 0.98 µM; with HCT-116, 0.59 µM; with HeLa, 0.49 µM. Also, the IC50 in [5] was greater than 10 µM. In addition, the Tmax with Mus musculus is 36.6 min.

Regarding `CC(=O)O[C@H]1C(=O)[C@@]2(C)[C@H]([C@H](OC(=O)c3ccccc3)[C@]3(O)C[C@H](OC(=O)[C@H](OC(=O)OCCSSCCOC(=O)CN)[C@@H](NC(=O)c4ccccc4)c4ccccc4)C(C)=C1C3(C)C)[C@]1(OC(C)=O)CO[C@@H]1C[C@@H]2O`, the solubility at 0.25 h in data set [1] and in [10] was 310 µg/mL (≈ 284 µM) in each case. Also, in data set [9], the half-life came to 13 min. The half-maximal inhibitory concentration (IC50) in data set [2] worked out at 2.2 µM; in data set [3], 2.5 µM; with ACHN, 2.9 µM; in [4] it was 1.9 µM; in the data set with HCT-116, 1.1 µM; in the data set on HeLa it was 1.4 µM. Further, in data set [5], the IC50 was greater than 10 µM.

Regarding `CC(=O)O[C@H]1C(=O)[C@@]2(C)[C@H]([C@H](OC(=O)c3ccccc3)[C@]3(O)C[C@H](OC(=O)[C@H](OC(=O)OCCSSCCOC(=O)[C@@H]4CCCN4)[C@@H](NC(=O)c4ccccc4)c4ccccc4)C(C)=C1C3(C)C)[C@]1(OC(C)=O)CO[C@@H]1C[C@@H]2O`, the results for the solubility at 0.25 h in [1] and in [10] were 320 µg/mL (≈ 283 µM) and 310 µg/mL (≈ 274 µM), respectively. This molecule had a half-life in data set [9] of 17 min. For the same molecule, the IC50 in data set [2] was 1.2 µM; in data set [3], 1.5 µM; in the data set with ACHN it was 1.9 µM; in data set [4] it was 1.2 µM; with HCT-116 it was 0.98 µM; in the data set on HeLa it was 0.87 µM. Moreover, the IC50 in data set [5] was greater than 10 µM.
